Test results: ChEMBL document CHEMBL4825686, “HTS-based discovery and optimization of novel positive allosteric modulators of the α7 nicotinic acetylcholine receptor” (Eur J Med Chem, 2021)
In brackets after ≈: the same amount, converted by molar mass. Activity calls are given as the source filed them. The calls are words filed in the database; no cut-off is given here.

How the values were obtained:
[1] = molecular target: Voltage-gated inwardly rectifying potassium channel KCNH2 (Homo sapiens, UniProt Q12809); experiment: Inhibition of human ERG channel expressed in CHO cells measured after 7 to 10 mins at -80 mV holding potential by whole cell patch clamp assay; type: cell-based
[2] = Mutagenicity in Salmonella typhimurium TA1535 in absence of rat liver S9 fraction by AMES test; type: toxicity; details: salmonella enterica subsp. enterica serovar typhimurium
[3] = molecular target: GABA-A receptor; alpha-5/beta-3/gamma-2 (Homo sapiens) (UniProt P18507+P28472+P31644); experiment: Activation of human alpha5beta3gamma2 GABAA receptor expressed in HEK293 cells assessed as enhancement of GABA induced channel current response at 1 to 10 uM measured after 7 to 10 mins at -80 mV holding potential by whole-cell patch clamp assay; type: cell-based; details: dose 1-10 µM, time 7-10 min
[4] = Ratio of drug level in NMRI mouse brain to plasma at 1 mg/kg, ip measured after 1 hr by HPLC-MS/MS analysis; type: ADME, organism-based; details: read-out: BPR
[5] = Apparent permeability across apical to basolateral side in vinblastine-treated human Caco-2 cells expressing P-glycoprotein at 10 uM incubated for 120 mins by HPLC analysis; type: ADME
[6] = Mutagenicity in Salmonella typhimurium TA98 in presence of rat liver S9 fraction by AMES test; type: toxicity, subcellular; details: salmonella enterica subsp. enterica serovar typhimurium
[7] = Mutagenicity in Salmonella typhimurium TA100 in absence of rat liver S9 fraction by AMES test; type: toxicity; details: salmonella enterica subsp. enterica serovar typhimurium
[8] = Mutagenicity in Salmonella typhimurium TA1535 in presence of rat liver S9 fraction by AMES test; type: toxicity, subcellular; details: salmonella enterica subsp. enterica serovar typhimurium
[9] = Ratio of drug level in NMRI mouse brain to plasma at 0.3 mg/kg, ip measured after 1 hr by HPLC-MS/MS analysis; type: ADME, organism-based; details: read-out: BPR
[10] = Metabolic stability in Wistar rat liver microsomes assessed as intrinsic clearance at 1 uM measured per mg protein upto 40 mins; type: ADME, Microsome; details: read-out: CLH
[11] = molecular target: T1, Neuronal acetylcholine receptor subunit alpha-7 (Homo sapiens, UniProt P36544); experiment: Positive allosteric modulation of human alpha7 nAChR expressed in HEK293 cells assessed as increase in peak current amplitude measured after 6 to 10 mins at -80 mV holding potential by automated whole cell patch clamp analysis; type: cell-based
[12] = Plasma concentration in NMRI mouse at 0.3 mg/kg, ip measured after 1 hr by HPLC-MS/MS analysis; type: ADME, organism-based
[13] = molecular target: Sigma non-opioid intracellular receptor 1 (Homo sapiens) (UniProt Q99720); experiment: Binding affinity to human recombinant sigma-1 receptor assessed as displacement of radioligand at 10 uM by displacement binding assay
[14] = molecular target: GABA-A receptor; anion channel (Rattus norvegicus) (UniProt O09028+P15431+P18506+P18508+P19969+P20236+P23574+P23576+P28471+P28473+P30191+P62813+P63079+P63138+Q91ZM7+Q9ES14); experiment: Displacement of [3H]flunitrazepam from GABAA receptor in Wistar rat brain without cerebellum at 10 uM by displacement binding assay; type: tissue-based
[15] = Drug uptake in NMRI mouse brain at 10 mg/kg, ip measured after 1 hr by HPLC-MS/MS analysis; type: ADME, organism-based; details: read-out: Ct
[16] = Plasma concentration in Wistar rat at 10 mg/kg, ip measured after 35 mins by HPLC-MS/MS analysis; type: ADME, organism-based
[17] = molecular target: T1, Neuronal acetylcholine receptor subunit alpha-7; experiment: Positive allosteric modulator activity at human alpha7 nAChR expressed in Flp-In-HEK293 cells co-expressing RIC-3 assessed as potentiation of PNU282987-induced calcium influx measured after 10 mins by FLIPR assay; type: cell-based, Flp-In-293; details: read-out: EC50
[18] = molecular target: T1, Neuronal acetylcholine receptor subunit alpha-7; experiment: Positive allosteric modulation of human alpha7 nAChR expressed in HEK293 cells assessed as inhibition of choline-evoked current desensitization measured after 6 to 10 mins at -80 mV holding potential by automated whole cell patch clamp analysis; type: cell-based; details: filed as positive allosteric modulator, time 6-10 min
[19] = Ratio of drug level in NMRI mouse brain to plasma at 10 mg/kg, ip measured after 1 hr by HPLC-MS/MS analysis; type: ADME, organism-based; details: read-out: BPR
[20] = Mutagenicity in Salmonella typhimurium TA100 in presence of rat liver S9 fraction by AMES test; type: toxicity, subcellular; details: salmonella enterica subsp. enterica serovar typhimurium
[21] = Drug uptake in NMRI mouse brain at 3 mg/kg, ip measured after 1 hr by HPLC-MS/MS analysis; type: ADME, organism-based; details: read-out: Ct
[22] = Ratio of drug level in Wistar rat brain to plasma at 10 mg/kg, ip measured after 35 mins by HPLC-MS/MS analysis; type: ADME, organism-based; details: read-out: BPR
[23] = molecular target: Neuronal acetylcholine receptor; alpha3/beta4 (Homo sapiens) (UniProt P30926+P32297); experiment: Positive allosteric modulator activity at alpha3beta4 nAChR (unknown origin) upto 10 uM by automated Q-patch clamp assay; details: dose microM <=10
[24] = Mutagenicity in Salmonella typhimurium TA1537 in absence of rat liver S9 fraction by AMES test; type: toxicity; details: salmonella enterica subsp. enterica serovar typhimurium
[25] = Mutagenicity in Escherichia coli WP2 uvrA in absence of rat liver S9 fraction by AMES test; type: toxicity
[26] = Mutagenicity in Escherichia coli WP2 uvrA in presence of rat liver S9 fraction by AMES test; type: toxicity, subcellular
[27] = Drug uptake in Wistar rat brain at 3 mg/kg, ip measured after 35 mins by HPLC-MS/MS analysis; type: ADME, organism-based; details: read-out: Ct
[28] = molecular target: Glutamate NMDA receptor (Rattus norvegicus) (UniProt P35439+Q00959+Q00960+Q00961+Q62645+Q8VHN2+Q9R1M7); experiment: Displacement of [3H]TCP from NMDA receptor in Wistar rat cerebral cortex at 10 uM by displacement binding assay; type: tissue-based
[29] = Metabolic stability in NMRI mouse liver microsomes assessed as intrinsic clearance at 1 uM measured per mg protein upto 40 mins; type: ADME, Microsome; details: read-out: CLH
[30] = Plasma concentration in Wistar rat at 1 mg/kg, ip measured after 35 mins by HPLC-MS/MS analysis; type: ADME, organism-based
[31] = Kinetic solubility of compound; type: physicochemical; details: read-out: Kinetic_solubility

T1 sequence (P36544 whole entry): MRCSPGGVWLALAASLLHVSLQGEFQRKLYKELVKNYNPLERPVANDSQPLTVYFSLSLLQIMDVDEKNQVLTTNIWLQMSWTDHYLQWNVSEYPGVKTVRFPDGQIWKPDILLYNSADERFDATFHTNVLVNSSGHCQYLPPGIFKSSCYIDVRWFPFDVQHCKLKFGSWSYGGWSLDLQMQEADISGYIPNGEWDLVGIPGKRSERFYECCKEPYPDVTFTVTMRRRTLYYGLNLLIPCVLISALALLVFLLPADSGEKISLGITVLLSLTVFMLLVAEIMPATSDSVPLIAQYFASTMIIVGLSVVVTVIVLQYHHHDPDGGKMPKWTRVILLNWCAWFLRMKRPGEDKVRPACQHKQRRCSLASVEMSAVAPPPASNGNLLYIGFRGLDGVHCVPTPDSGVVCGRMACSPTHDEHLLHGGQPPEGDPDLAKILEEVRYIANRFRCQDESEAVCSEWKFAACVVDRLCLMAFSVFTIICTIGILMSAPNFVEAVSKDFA
Sequence of Sigma non-opioid intracellular receptor 1 (Homo sapiens) (Q99720 whole entry): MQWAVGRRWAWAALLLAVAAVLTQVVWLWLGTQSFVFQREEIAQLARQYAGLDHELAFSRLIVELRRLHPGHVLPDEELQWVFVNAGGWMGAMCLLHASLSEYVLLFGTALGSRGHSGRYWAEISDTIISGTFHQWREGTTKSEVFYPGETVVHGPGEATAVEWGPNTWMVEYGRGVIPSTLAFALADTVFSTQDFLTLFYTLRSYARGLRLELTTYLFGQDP
Sequence of Voltage-gated inwardly rectifying potassium channel KCNH2 (Q12809 whole entry): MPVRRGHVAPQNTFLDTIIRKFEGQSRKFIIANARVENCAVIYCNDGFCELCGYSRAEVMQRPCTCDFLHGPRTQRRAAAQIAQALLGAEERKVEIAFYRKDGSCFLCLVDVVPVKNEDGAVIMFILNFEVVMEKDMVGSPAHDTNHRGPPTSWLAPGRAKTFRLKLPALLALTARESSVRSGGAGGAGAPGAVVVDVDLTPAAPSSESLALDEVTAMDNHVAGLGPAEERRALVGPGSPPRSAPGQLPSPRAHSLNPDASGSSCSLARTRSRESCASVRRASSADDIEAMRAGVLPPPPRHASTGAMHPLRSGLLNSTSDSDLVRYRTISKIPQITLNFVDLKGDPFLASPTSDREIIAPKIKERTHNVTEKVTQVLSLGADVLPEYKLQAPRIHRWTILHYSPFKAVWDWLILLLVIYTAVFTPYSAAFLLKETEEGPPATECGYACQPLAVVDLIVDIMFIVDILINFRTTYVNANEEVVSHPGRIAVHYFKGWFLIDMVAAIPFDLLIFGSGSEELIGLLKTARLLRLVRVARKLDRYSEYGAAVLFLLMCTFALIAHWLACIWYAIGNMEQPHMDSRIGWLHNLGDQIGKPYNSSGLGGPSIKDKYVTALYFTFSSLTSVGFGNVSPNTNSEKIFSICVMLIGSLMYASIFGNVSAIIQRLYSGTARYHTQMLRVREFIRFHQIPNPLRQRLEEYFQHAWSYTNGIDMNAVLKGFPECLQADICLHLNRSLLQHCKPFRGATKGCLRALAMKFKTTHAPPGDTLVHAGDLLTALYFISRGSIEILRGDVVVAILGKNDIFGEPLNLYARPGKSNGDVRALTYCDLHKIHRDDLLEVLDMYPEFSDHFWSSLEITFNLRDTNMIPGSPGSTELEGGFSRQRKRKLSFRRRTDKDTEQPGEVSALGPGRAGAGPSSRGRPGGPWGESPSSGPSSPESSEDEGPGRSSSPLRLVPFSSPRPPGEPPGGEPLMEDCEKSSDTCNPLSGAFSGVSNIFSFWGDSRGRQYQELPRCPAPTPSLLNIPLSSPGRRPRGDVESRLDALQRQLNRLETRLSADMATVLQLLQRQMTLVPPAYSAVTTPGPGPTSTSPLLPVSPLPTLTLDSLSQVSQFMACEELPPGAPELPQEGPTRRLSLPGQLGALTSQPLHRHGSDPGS

Cc1ccc(CN2CCN(C(=O)C(=O)Nc3ccc4c(ccn4C)c3)CC2)cc1
IC50 [1]: 7500 nM | Activity [2]: Non-Toxic | Activity [3]: < 7% | Kp at 1 h [4]: 1.88 | Papp A→B at 2 h, 10 µM [5]: 30.7 ×10⁻⁶ cm/s | Activity [6]: Non-Toxic | Activity [7]: Non-Toxic | Activity [8]: Non-Toxic | Kp at 1 h [9]: 1.22 | microsomal CLint at 1 µM [10]: 158 µL/min/mg | EC50 [11]: 710 nM | concentration at 1 h [12]: 4.3 nM | inhibition [13]: 55% | inhibition [14]: < 15% | concentration at 1 h [15]: 233 nM | concentration at 35 min [16]: 196 nM | EC50 [17]: 90 nM | Activity [18]: Active | Kp at 1 h [19]: 1.67 | Activity [20]: Non-Toxic | concentration at 1 h [21]: 64 nM | Kp at 35 min [22]: 4.01 | Activity [23]: inactive | Activity [24]: Non-Toxic | Activity [25]: Non-Toxic | Activity [26]: Non-Toxic | concentration at 35 min [27]: 207 nM | inhibition [28]: < 15% | microsomal CLint at 1 µM [29]: 55 µL/min/mg | concentration at 35 min [30]: 28 nM | solubility kinetic [31]: 41.6 µM (≈ 16.2 µg/mL)
